Reference: PubChem BioAssay AID489024 (Sanford-Burnham Center for Chemical Genomics, 2010)
Activity calls are given as the source filed them.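 Rule for the calls: active = compounds whose mean EC50, the dose giving half the maximal reporter activation, is at or below a set limit; inactive = the rest.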

Target: CHO-CHOP luciferase reporter, UPR activation, luminescence
Test: CHOP reporter induction, apoptotic UPR branch – CHO-CHOP cells, luciferase luminescence, confirmation (AID 489024);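 note: compounds added alone to reporter cells with no tunicamycin stress co-treatment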

| Compound | EC50 |
| --- | --- |
| COc1ccc(NC(=O)c2sc3nc(N4CCOCC4)c4c(c3c2N)CC(C)(C)OC4)c(OC)c1 | > 80 µM (inactive) |
| O=c1[nH]c(=S)n(C2CC2)c(O)c1C=Nc1cccc(C(F)(F)F)c1 | > 80 µM (inactive) |
| Cc1cccnc1Nc1nc(-c2ccccn2)cs1 | 0.64 µM |
| CC1=CC(C)(C)Nc2ccc(OC(=O)CN3C(=O)CCC3=O)cc21 | 9.58 µM |
| CCOc1ccc(-c2nnc(SCC(=O)Nc3ccc4c(c3)c3ccccc3n4CC)n2N)cc1 | 12.6 µM |
| Cc1cc(C)cc(NC(=O)/C(C#N)=C/c2cn(CC(=O)NCc3ccco3)c3ccccc23)c1 | 7.54 µM |
| O=C(C#Cc1cccc([N+](=O)[O-])c1)c1ccccc1 | 8.96 µM |
| C=C(C(=O)c1ccccc1)C(C(=C)C(=O)c1ccccc1)c1ccc(OC)cc1 | 15.3 µM |
| Oc1ccc(/C=N/Nc2cc(N3CCOCC3)nc(N3CCOCC3)n2)cc1O | > 80 µM (inactive) |
| O=C(C=C=Nc1ccccc1)C(=O)N=C=Cc1ccccc1 | 5.75 µM |
| O=C1/C(=C/c2ccccc2[N+](=O)[O-])COc2ccccc21 | 6.15 µM |
| O=C(Nc1nc(-c2ccccn2)cs1)c1ccc(Cl)s1 | 6.11 µM |
| COc1cc([N+](=O)[O-])cc(/C=N/NC(=O)c2ccc(NC(=O)c3ccc(C)cc3)cc2)c1O | 12.3 µM |
| O=C(CCl)N1N=C(c2cccs2)CC1c1ccco1 (configuration not stated) | > 80 µM (inactive) |
| COc1cc(/C=C2\COC/C(=C\c3ccc(O)c(OC)c3)C2=O)ccc1O | 6.34 µM |
| CC(=O)/C(=N\Nc1ccc(Cl)cc1Cl)Sc1cccc2cccnc12 | 3.26 µM |
| COc1ccc(C2Nc3ccc4ccccc4c3-c3c2c(=O)oc2ccccc32)cc1 (configuration not stated) | > 80 µM (inactive) |
| COc1ccc(OC)c(/C=C/C(=O)N2C(=O)c3cccc(N)c3C2=O)c1 | inactive |
| COc1ccc(NS(=O)(=O)c2ccc3ccccc3c2)c2ncccc12 | 9.28 µM |
| COc1cc(CN2CCN(c3cc(C)ccc3C)CC2)ccc1O | 11.7 µM |
| O=c1c2ccccc2nc(/C=C/c2ccc([N+](=O)[O-])o2)n1-c1ccc(O)cc1 | 13.3 µM |
| COc1cccc2sc(Nc3nc(C)c(C(C)=O)s3)nc12 | 14.7 µM |
| FC(F)(F)c1nnc2c(Sc3ccccc3)nc3ccc(Cl)cc3n12 | 3.97 µM |
| O=Cc1ccc(O)c2ncccc12 | 10.3 µM |
| O=[N+]([O-])c1ccc(C=Nc2ccc(Cl)c([N+](=O)[O-])c2)s1 | > 80 µM (inactive) |
| COc1ccc(C(=O)C(CN2CCOCC2)c2ccccc2)cc1 (configuration not stated) | inactive |

| Compound | EC50 |
| --- | --- |
| CC1=NN(c2cccc(C(=O)O)c2)C(=O)/C1=C\C=C/c1ccccc1 | 11.7 µM |
| COc1ccccc1N=c1oc2c(OC)cccc2cc1C(=O)NCc1ccco1 | > 80 µM (inactive) |
| O=C(CCl)c1ccc(Cc2ncc(C(F)(F)F)cc2Cl)s1 | 9.69 µM |
| COC(=O)c1ccc(C(=O)OC)c(NC(=O)CSc2cccc[n+]2[O-])c1 | inactive |
| S=C(Nc1ccccc1)c1ccccn1 | 9.11 µM |
| Cc1cc(C)nc(SCc2ccc(C(=O)N/N=C/c3cccc(O)c3O)cc2)n1 | 10.1 µM |
| Cc1cc(N2CCN(c3ccc([N+](=O)[O-])c4cccnc34)CC2)c2ccccc2n1 | inactive |
| COC(=O)c1cc(=O)n(Cc2ccc3c(c2)OCO3)c(=Nc2ccc(F)c(Cl)c2)s1 | > 80 µM (inactive) |
| Clc1ccc(-c2ccc(/C=N/Nc3nncc(-c4ccccc4)n3)o2)cc1 | 15.6 µM |
| Cc1ccc(C(=O)Cn2c(C(=O)/C=C/c3ccccc3)nc3ccccc32)cc1 | 13.7 µM |
| O=C(Nc1nc(-c2ccc3ccccc3c2)cs1)c1ccc(N2C(=O)CCC2=O)cc1 | > 80 µM (inactive) |
| O=C(Nc1nc(-c2ccccn2)cs1)c1ccc(Br)s1 | 8.23 µM |
| C/C(CCC12CC3CC(CC(C3)C1)C2)=N\NC(N)=S | 16.5 µM |
| CC(C)N=c1scc(-c2cccs2)n1/N=C/c1ccc(O)c(O)c1O | 11.6 µM |
| COc1cc(NC(=O)c2cncc(-c3ccc(C#N)cc3)c2)cc(C(=O)Nc2cccc(C(F)(F)F)c2)c1 | inactive |
| CCOC(=O)N1CCN(S(=O)(=O)c2ccc(C(=O)Nc3nc4c(s3)CC(C)CC4)cc2)CC1 (configuration not stated) | > 80 µM (inactive) |
| CC(NC(=O)CN(c1cccc(C(F)(F)F)c1)S(=O)(=O)c1ccc(Cl)c([N+](=O)[O-])c1)c1ccccc1 (configuration not stated) | 8.07 µM |
| COc1cc(C(=O)Sc2ccc(Cl)cc2)cc(OC)c1OC | 15 µM |
| COc1ccc2cc1Oc1ccc(cc1)CC1c3c(cc(OC)c4c3Oc3cc5c(cc3O4)CCNC5C2)CCN1C (configuration not stated) | > 80 µM (inactive) |
| Oc1ccc(CN2CCc3ccccc3C2)c2cccnc12 | 13.8 µM |
| C/C(=N\NC(=O)c1ccc(Cl)cc1)c1ccccn1 | 8.06 µM |
| COC(=O)C(=Cc1ccc(OCc2ccc([N+](=O)[O-])cc2)c(OC)c1)C(=O)OC | 5.43 µM |
| Cc1cccc(Nc2nc3c(S(=O)(=O)c4ccccc4)nnn3c3ccccc23)c1C | inactive |
| O=C(Nc1ccc(N2CCOCC2)cc1)c1ccc([N+](=O)[O-])o1 | 4.64 µM |
| COc1cc(C(Nc2ccccn2)c2ccc3ccc(C)nc3c2O)cc(OC)c1O (configuration not stated) | 6.83 µM |
| CCN1CSC(=S)N(Cc2ccccc2)C1 | 8.48 µM |

| Compound | EC50 |
| --- | --- |
| Cc1ccc(-c2nn(-c3ccccc3)cc2C=C2C(=O)CC(C)(C)CC2=O)cc1 | 13.2 µM |
| COc1ccc2c(c1OC)C(=O)OC2Nc1nc(-c2ccccc2)cs1 (configuration not stated) | > 80 µM (inactive) |
| O=C(CSc1ccc2ccccc2c1)NCCc1ccc(O)c(O)c1 | 8.44 µM |
| Cc1coc2c1C(=O)C(=O)c1c-2ccc2c(C)cccc12 | > 80 µM (inactive) |
| COc1ccccc1N1CCN(Cc2ccc(O)c3ncccc23)CC1 | 14.7 µM |
| COc1ccc(-n2c(C)cc(C(=O)CCl)c2C)cc1 | 7.13 µM |
| Cc1ccc(Sc2c([N+](=O)[O-])c(=O)n(C)c3ccccc23)cc1 | > 80 µM (inactive) |
| CN1CSC(=S)N(C)C1 | > 80 µM (inactive) |
| COc1ccc(OC)c(Nc2nc(-c3ccc(O)c(O)c3)cs2)c1 | 1.55 µM |
| Cc1cccc2sc(NC(=O)c3cc(S(=O)(=O)N(C)C)ccc3N3CCCC3)nc12 | inactive |
| Brc1ccccc1CN1CCN(Cc2c[nH]c3ccccc23)CC1 | 7.72 µM |
| CCOC(=O)C1=C(Cc2ccc(Cl)cc2)C(=O)c2ccccc2C1=O | > 80 µM (inactive) |
| Cc1ccc(Cc2cnc(NC(=O)/C(C#N)=C/c3ccc(-c4ccc([N+](=O)[O-])cc4)o3)s2)cc1 | inactive |
| Cc1cc(C)nc(S/C=C/C(=O)c2ccccc2)n1 | 6.72 µM |
| Cc1cc(C(=O)CCl)c(C)n1-c1cccc([N+](=O)[O-])c1 | 8.64 µM |
| CCOC(=O)c1cc(-c2ccc(/C=C3/C(=O)N(c4ccc(C(=O)O)cc4)N=C3C)o2)ccc1Cl | 10.8 µM |
| CC(C)c1ccc(NC(=O)/C(C#N)=C/c2ccncc2)cc1 | 13.6 µM |
| O=C1NC(=O)C(=Cc2ccc(-c3ccc(Cl)cc3)o2)C(=O)N1 | 18.2 µM |
| O=C(Nc1nc2ccc(F)cc2s1)c1ccccn1 | 7.16 µM |
| Cc1cc(C(=O)c2ccc(Cl)cc2)c(NC(=O)CCl)s1 | 16.4 µM |
| Cc1nn(-c2ccccc2)c(C)c1/C=N/NC(=O)CSc1nc2ccccc2c(=O)n1-c1ccc(Br)cc1 | 9.85 µM |
| O=C(/C=C/Sc1ccc(C(F)(F)F)cn1)c1ccccc1 | 7.85 µM |
| O=C(Nc1ccc(-c2nc3cc(NC(=O)c4cccs4)ccc3o2)cc1)c1cccs1 | 6 µM |
| C=CCN1C(=O)/C(=C/c2ccc3c(c2)CCCN3CCC)C(=O)NC1=S | 14 µM |
| Cc1cc(C(=O)c2ccc(C(C)(C)C)cc2)c(NC(=O)CCl)s1 | 12.4 µM |
